Data from patent publication US20050288307A1, “Anti-viral compounds” (priority 2002, published 2005).
Where two headings read alike, the source gives them in different places.

Key:
CDK2/Cyclin E = target: T1, CDK2/Cyclin E (Homo sapiens, UniProt P24941); experiment: CDK2/cyclin E kinase assay (GST-Rb phosphorylation); type: biochemical;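 note: enzyme source: His-tagged CDK2/cyclin E complex co-expressed recombinantly in Sf9 insect cells using baculovirus constructs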
T1 construct: His; made in house; host or cells: Sf9 insect cells (baculovirus)

CDK4/Cyclin D1 = CDK4/Cyclin D1 (Homo sapiens, UniProt P11802); experiment: CDK4/cyclin D1 kinase assay (GST-Rb phosphorylation); type: biochemical; conditions: Table 3; read-out: Average IC50 CDK4 cyclin D1
CDK1/Cyclin B = CDK1/Cyclin B (Homo sapiens, UniProt P06493); experiment: CDK1/cyclin B kinase assay (GST-Rb phosphorylation);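 note: Enzyme: His-tagged CDK1/Cyclin B co-expressed in baculovirus-infected Sf9 insect cells, purified via metal-chelate chromatography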
CDK9/cyclin T1 = CDK9/cyclin T1 (Homo sapiens, UniProt P50750); experiment: CDK9 assay (CTD peptide substrate); type: biochemical
Description: CTD peptide substrate (biotinyl-Ahx-(Tyr-Ser-Pro-Thr-Ser-Pro-Ser)4-NH2; 1-2 mg/mL) and recombinant human CDK7/cyclin H, CDK9/cyclin T1, or CDK9/cyclin K (0.5-2 μg) were incubated for 45 min at 30° C. in the presence of varying amounts of test compound in 20 mM MOPS pH 7.2, 25 mM β-glycerophosphate, 5 mM EGTA, 1 mM DTT, 1 mM sodium vanadate, 15 mM MgCl2, and 100 μM ATP (containing a trace amount of ^32PγATP) in a total volume of 25 μL in a 96-well microtiter plate. The reaction was stopped by placing the plate on ice for 2 min. Avidin (50 μg) was added to each well, and the plate was incubated at room temp for 30 min. The samples were transferred to a 96-well P81 filter plate, and washed (4×200 μL per well) with 75 mM phosphoric acid. Microscint 40 scintillation liquid (50 μL) was added to each well, and the amount of ^32P incorporation for each sample was measured using a Packard Topcount microplate scintillation counter.

[1] = Table 3, read-out: Average IC50 CDK2 cyclin E1
[2] = Table 3, read-out: Average IC50 CDK9 cyclin T1
[3] = Table 4, read-out: Kinase Inhibition IC50 CDK9-cyclin T1

CDK9/cyclin T1, sequence (P50750 whole entry): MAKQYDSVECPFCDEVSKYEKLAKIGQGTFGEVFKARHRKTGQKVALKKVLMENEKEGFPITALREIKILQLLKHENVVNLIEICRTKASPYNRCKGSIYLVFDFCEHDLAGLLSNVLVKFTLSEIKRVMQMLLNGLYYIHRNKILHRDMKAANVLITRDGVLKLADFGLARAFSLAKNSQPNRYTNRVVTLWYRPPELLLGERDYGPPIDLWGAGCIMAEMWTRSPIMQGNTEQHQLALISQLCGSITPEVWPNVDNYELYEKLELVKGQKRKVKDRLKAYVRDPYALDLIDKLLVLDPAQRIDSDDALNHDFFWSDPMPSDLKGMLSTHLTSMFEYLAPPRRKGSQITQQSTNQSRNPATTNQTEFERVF
CDK9/cyclin T1, sequence (O60563 whole entry partner): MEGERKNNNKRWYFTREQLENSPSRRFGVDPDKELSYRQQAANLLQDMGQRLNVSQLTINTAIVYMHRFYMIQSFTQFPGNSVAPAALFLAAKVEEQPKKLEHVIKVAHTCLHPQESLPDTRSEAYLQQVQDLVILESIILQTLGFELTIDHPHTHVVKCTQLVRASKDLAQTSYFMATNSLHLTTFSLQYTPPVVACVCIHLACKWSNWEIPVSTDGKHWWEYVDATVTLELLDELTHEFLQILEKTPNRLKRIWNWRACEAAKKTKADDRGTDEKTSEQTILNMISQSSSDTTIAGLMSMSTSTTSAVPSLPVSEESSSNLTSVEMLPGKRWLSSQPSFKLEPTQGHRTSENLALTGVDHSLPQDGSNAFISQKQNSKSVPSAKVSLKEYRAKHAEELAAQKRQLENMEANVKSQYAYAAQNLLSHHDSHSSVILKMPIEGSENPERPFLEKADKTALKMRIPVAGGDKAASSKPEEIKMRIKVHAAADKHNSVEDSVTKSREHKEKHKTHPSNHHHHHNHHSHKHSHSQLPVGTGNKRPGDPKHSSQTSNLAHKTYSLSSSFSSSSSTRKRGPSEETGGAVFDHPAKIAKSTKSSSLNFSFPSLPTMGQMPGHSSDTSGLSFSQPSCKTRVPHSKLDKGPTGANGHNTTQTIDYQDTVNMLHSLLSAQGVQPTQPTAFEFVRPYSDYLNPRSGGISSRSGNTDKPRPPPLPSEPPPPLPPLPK
CDK1/Cyclin B, sequence (P06493 whole entry, species assumed): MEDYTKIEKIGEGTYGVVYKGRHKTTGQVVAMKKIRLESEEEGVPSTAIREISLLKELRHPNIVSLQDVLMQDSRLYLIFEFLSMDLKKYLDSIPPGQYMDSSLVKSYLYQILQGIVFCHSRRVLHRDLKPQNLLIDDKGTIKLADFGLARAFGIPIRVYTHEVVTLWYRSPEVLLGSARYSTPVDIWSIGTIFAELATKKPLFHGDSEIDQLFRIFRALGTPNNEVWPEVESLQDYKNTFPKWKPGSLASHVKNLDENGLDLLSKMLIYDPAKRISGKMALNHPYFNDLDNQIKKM
CDK1/Cyclin B, sequence (P14635 whole entry partner, species assumed): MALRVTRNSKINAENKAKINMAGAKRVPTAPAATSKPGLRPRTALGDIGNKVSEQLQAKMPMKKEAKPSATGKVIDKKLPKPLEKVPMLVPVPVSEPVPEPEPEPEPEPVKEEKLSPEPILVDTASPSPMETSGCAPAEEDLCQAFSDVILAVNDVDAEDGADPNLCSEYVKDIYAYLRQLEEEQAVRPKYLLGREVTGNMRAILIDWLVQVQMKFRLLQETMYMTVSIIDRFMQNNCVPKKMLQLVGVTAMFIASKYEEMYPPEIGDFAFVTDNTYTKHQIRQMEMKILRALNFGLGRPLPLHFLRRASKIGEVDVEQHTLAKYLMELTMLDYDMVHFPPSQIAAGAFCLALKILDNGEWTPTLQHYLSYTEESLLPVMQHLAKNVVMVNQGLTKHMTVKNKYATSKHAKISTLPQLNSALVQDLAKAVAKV
CDK4/Cyclin D1, sequence (P11802 whole entry, species assumed): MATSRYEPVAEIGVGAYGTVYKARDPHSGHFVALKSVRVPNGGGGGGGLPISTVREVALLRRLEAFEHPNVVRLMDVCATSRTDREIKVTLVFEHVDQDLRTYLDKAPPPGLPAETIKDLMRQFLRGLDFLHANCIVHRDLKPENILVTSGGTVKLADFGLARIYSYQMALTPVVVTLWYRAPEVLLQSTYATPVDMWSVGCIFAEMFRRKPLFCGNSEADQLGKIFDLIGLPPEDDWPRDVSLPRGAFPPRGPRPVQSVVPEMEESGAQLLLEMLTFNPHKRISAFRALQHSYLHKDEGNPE
CDK4/Cyclin D1, sequence (P24385 whole entry partner, species assumed): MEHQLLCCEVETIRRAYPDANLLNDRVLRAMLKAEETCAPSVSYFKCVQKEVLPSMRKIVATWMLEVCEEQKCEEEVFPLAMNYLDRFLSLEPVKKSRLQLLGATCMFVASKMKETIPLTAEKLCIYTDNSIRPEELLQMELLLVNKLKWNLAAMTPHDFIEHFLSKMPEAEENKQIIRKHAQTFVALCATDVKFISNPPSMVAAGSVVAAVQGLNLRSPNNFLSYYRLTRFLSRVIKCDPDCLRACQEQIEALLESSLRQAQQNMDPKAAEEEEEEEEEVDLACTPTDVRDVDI

`Cc1nc(N)sc1-c1ccnc(Nc2cccc(Cl)c2)n1` [Compound 112, [4-(2-Amino-4-methyl-thiazol-5-yl)-pyrimidin-2-yl]-(3-chloro-phenyl)-amine] was tested, and the IC50 (CDK2/Cyclin E; [1]) was 18 nM and the IC50 (CDK4/Cyclin D1) was 71 nM.

`Cc1nc(C)c(-c2ccnc(Nc3cc(Cl)cc(Cl)c3)n2)s1` [Compound 11, (3,5-Dichloro-phenyl)-[4-(2,4-dimethyl-thiazol-5-yl)-pyrimidin-2-yl]-amine] was tested, and the IC50 (CDK2/Cyclin E; [1]) was 10000 nM and the IC50 (CDK1/Cyclin B) was 20000 nM.

For `Cc1nc(C)c(-c2ccnc(Nc3cccc(I)c3)n2)s1` [Compound 20, [4-(2,4-Dimethyl-thiazol-5-yl)-pyrimidin-2-yl]-(3-iodo-phenyl)-amine], the IC50 (CDK2/Cyclin E; [1]) was 6800 nM.

`Cc1nc(NCCO)sc1-c1ccnc(Nc2ccc(F)cc2)n1` [Compound 145, 2-{5-[2-(4-Fluoro-phenylamino)-pyrimidin-4-yl]-4-methyl-thiazol-2-ylamino}-ethanol] showed an IC50 (CDK9/cyclin T1; [2]) of 8 nM.

Work on `Cc1nc(NCCO)sc1-c1ccnc(Nc2cccc([N+](=O)[O-])c2)n1` [Compound 144, 2-{4-Methyl-5-[2-(3-nitro-phenylamino)-pyrimidin-4-yl]-thiazol-2-ylamino}-ethanol] yielded an IC50 (CDK9/cyclin T1; [2]) of 4 nM.

With `Cc1nc(N)sc1-c1ccnc(Nc2cccc(Br)c2)n1` [Compound 119, [4-(2-Amino-4-methyl-thiazol-5-yl)-pyrimidin-2-yl]-(3-bromo-phenyl)-amine] the IC50 (CDK9/cyclin T1; [2]) was 280 nM.

Compound `Cc1cc(Nc2nccc(-c3sc(=O)n(C)c3C)n2)ccc1F` [Compound 162, 5-[2-(4-Fluoro-3-methyl-phenylamino)-pyrimidin-4-yl]-3,4-dimethyl-3H-thiazol-2-one] has an IC50 (CDK9/cyclin T1; [3]) of 79 nM.

For `Cc1nc(N)sc1-c1ccnc(Nc2ccc(N(C)C)cc2)n1` [Compound 106, N-[4-(2-Amino-4-methyl-thiazol-5-yl)-pyrimidin-2-yl]-N′,N′-dimethyl-benzene-1,4-diamine], the IC50 (CDK9/cyclin T1; [2]) was 240 nM.

Work on `Cc1nc(C)c(-c2ccnc(Nc3cccc(F)c3)n2)s1` [Compound 22, [4-(2,4-Dimethyl-thiazol-5-yl)-pyrimidin-2-yl]-(3-fluoro-phenyl)-amine] yielded an IC50 (CDK2/Cyclin E; [1]) of 220 nM.

Compound `O=[N+]([O-])c1ccc(Nc2ncc(-c3ccnc(Nc4ccc(O)cc4)n3)s2)cc1` [Compound 95, 4-{4-[2-(4-Nitro-phenylamino)-thiazol-5-yl]-pyrimidin-2-ylamino}-phenol] has an IC50 (CDK2/Cyclin E; [1]) of 120 nM.

Compound `Cc1nc(C)c(-c2ccnc(Nc3ccc(F)c(F)c3)n2)s1` [Compound 23, (3,4-Difluoro-phenyl)-[4-(2,4-dimethyl-thiazol-5-yl)-pyrimidin-2-yl]-amine] has an IC50 (CDK9/cyclin T1; [2]) of 3110 nM.

Compound `Cc1nc(C)c(-c2ccnc(Nc3cccc(CO)c3)n2)s1` [Compound 100, {3-[4-(2,4-Dimethyl-thiazol-5-yl)-pyrimidin-2-ylamino]-phenyl}-methanol] has an IC50 (CDK2/Cyclin E; [1]) of 190 nM.

For `CNc1nc(C)c(-c2ccnc(Nc3cccc([N+](=O)[O-])c3)n2)s1` [Compound 61, [4-(4-Methyl-2-methylamino-thiazol-5-yl)-pyrimidin-2-yl]-(3-nitro-phenyl)-amine], the IC50 (CDK2/Cyclin E; [1]) was 2100 nM and the IC50 (CDK9/cyclin T1; [2]) was 190 nM.

`C=CCNc1nc(C)c(-c2ccnc(Nc3cccc([N+](=O)[O-])c3)n2)s1` [Compound 69, [4-(2-Allylamino-4-methyl-thiazol-5-yl)-pyrimidin-2-yl]-(3-nitro-phenyl)-amine] was tested, and the IC50 (CDK9/cyclin T1; [2]) was 68 nM.

`CNc1nc(C)c(-c2ccnc(Nc3cccc(F)c3)n2)s1` [Compound 87, (3-Fluoro-phenyl)-[4-(4-methyl-2-methylamino-thiazol-5-yl)-pyrimidin-2-yl]-amine] showed an IC50 (CDK2/Cyclin E; [1]) of 1300 nM and an IC50 (CDK9/cyclin T1; [2]) of 63 nM.

Work on `Cc1c(-c2ccnc(Nc3ccc(O)cc3)n2)sc(=O)n1C` [Compound 152, 5-[2-(4-Hydroxy-phenylamino)-pyrimidin-4-yl]-3,4-dimethyl-3H-thiazol-2-one] yielded an IC50 (CDK9/cyclin T1; [3]) of 2.3 nM.

Work on `Cc1nc(C)c(-c2cc(Br)nc(Nc3cccc([N+](=O)[O-])c3)n2)s1` [Compound 41, [4-Bromo-6-(2,4-dimethyl-thiazol-5-yl)-pyrimidin-2-yl]-(3-nitro-phenyl)-amine] yielded an IC50 (CDK2/Cyclin E; [1]) of 580 nM.

`CCNc1nc(C)c(-c2ccnc(Nc3ccc(Cl)cc3)n2)s1` [Compound 134, (4-Chloro-phenyl)-[4-(2-ethylamino-4-methyl-thiazol-5-yl)-pyrimidin-2-yl]-amine] was tested, and the IC50 (CDK2/Cyclin E; [1]) was 2000 nM, the IC50 (CDK9/cyclin T1; [2]) was 5900 nM and the IC50 (CDK1/Cyclin B) was 22000 nM.

With `Cc1nc(C)c(-c2ccnc(Nc3ccc(C(=O)O)cc3)n2)s1` [Compound 40, 4-[4-(2,4-Dimethyl-thiazol-5-yl)-pyrimidin-2-ylamino]-benzoic acid] the IC50 (CDK2/Cyclin E; [1]) was 740 nM.

`COC(=O)c1cc(Nc2nccc(-c3sc(C)nc3C)n2)ccc1Cl` [Compound 83, 2-Chloro-5-[4-(2,4-dimethyl-thiazol-5-yl)-pyrimidin-2-ylamino]-benzoic acid methyl ester] was tested, and the IC50 (CDK2/Cyclin E; [1]) was 2000 nM.

For `CCNc1nc(C)c(-c2ccnc(Nc3ccc(F)cc3)n2)s1` [Compound 60, [4-(2-Ethylamino-4-methyl-thiazol-5-yl)-pyrimidin-2-yl]-(4-fluoro-phenyl)-amine], the IC50 (CDK2/Cyclin E; [1]) was 510 nM.

Compound `COc1ccc(Nc2nccc(-c3sc(N)nc3C)n2)cc1` [Compound 111, [4-(2-Amino-4-methyl-thiazol-5-yl)-pyrimidin-2-yl]-(4-methoxy-phenyl)-amine] has an IC50 (CDK2/Cyclin E; [1]) of 670 nM.

With `Cc1nc(C)c(-c2ccnc(Nc3ccc(Cl)cc3)n2)s1` [Compound 2, (4-Chloro-phenyl)-[4-(2,4-dimethyl-thiazol-5-yl)-pyrimidin-2-yl]-amine] the IC50 (CDK2/Cyclin E) was 5100 nM and the IC50 (CDK1/Cyclin B) was 14000 nM.

With `CNc1nc(C)c(-c2ccnc(Nc3ccc(N(C)C)cc3)n2)s1` [Compound 131, N,N-Dimethyl-N′-[4-(4-methyl-2-methylamino-thiazol-5-yl)-pyrimidin-2-yl]-benzene-1,4-diamine] the IC50 (CDK9/cyclin T1; [2]) was 170 nM.

For `C=CCNc1nc(C)c(-c2ccnc(Nc3ccc(F)cc3)n2)s1` [Compound 67, [4-(2-Allylamino-4-methyl-thiazol-5-yl)-pyrimidin-2-yl]-(4-fluoro-phenyl)-amine], the IC50 (CDK2/Cyclin E; [1]) was 1300 nM.

Compound `CNc1nc(C)c(-c2ccnc(Nc3ccc(O)c([N+](=O)[O-])c3)n2)s1` [Compound 58, 4-[4-(4-Methyl-2-methylamino-thiazol-5-yl)-pyrimidin-2-ylamino]-2-nitro-phenol] has an IC50 (CDK2/Cyclin E; [1]) of 1500 nM and an IC50 (CDK9/cyclin T1; [2]) of 61 nM.

`Cc1nc(C)c(-c2ccnc(Nc3ccccc3F)n2)s1` [Compound 7, [4-(2,4-Dimethyl-thiazol-5-yl)-pyrimidin-2-yl]-(2-fluoro-phenyl)-amine] was tested, and the IC50 (CDK1/Cyclin B) was 12000 nM.

Compound `COc1ccccc1Nc1nccc(-c2sc(C)nc2C)n1` [Compound 24, [4-(2,4-Dimethyl-thiazol-5-yl)-pyrimidin-2-yl]-(2-methoxy-phenyl)-amine] has an IC50 (CDK2/Cyclin E; [1]) of 6300 nM.

For `Cc1nc(C)c(-c2ccnc(Nc3ccc(Cl)cc3Cl)n2)s1` [Compound 12, (2,4-Dichloro-phenyl)-[4-(2,4-dimethyl-thiazol-5-yl)-pyrimidin-2-yl]-amine], the IC50 (CDK2/Cyclin E; [1]) was 10000 nM.

Work on `CNc1nc(C)c(-c2ccnc(Nc3ccc(OC)cc3)n2)s1` [Compound 93, (4-Methoxy-phenyl)-[4-(4-methyl-2-methylamino-thiazol-5-yl)-pyrimidin-2-yl]-amine] yielded an IC50 (CDK2/Cyclin E; [1]) of 1 nM.

Compound `COc1ccc(Nc2nccc(-c3sc(C)nc3C)n2)c(O)c1` [Compound 79, 2-[4-(2,4-Dimethyl-thiazol-5-yl)-pyrimidin-2-ylamino]-5-methoxy-phenol] has an IC50 (CDK2/Cyclin E; [1]) of 1200 nM.

In the case of `CNc1nc(C)c(-c2ccnc(Nc3cccc(OC)c3)n2)s1` [Compound 73, (3-Methoxy-phenyl)-[4-(4-methyl-2-methylamino-thiazol-5-yl)-pyrimidin-2-yl]-amine], the IC50 (CDK2/Cyclin E; [1]) is reported as 310 nM and the IC50 (CDK9/cyclin T1; [2]) is reported as 480 nM.

With `COc1cccc(Nc2nccc(-c3sc(C)nc3C)n2)c1` [Compound 25, [4-(2,4-Dimethyl-thiazol-5-yl)-pyrimidin-2-yl]-(3-methoxy-phenyl)-amine] the IC50 (CDK2/Cyclin E; [1]) was 440 nM.

Compound `CNc1nc(C)c(-c2ccnc(Nc3cccc(Br)c3)n2)s1` [Compound 68, (3-Bromo-phenyl)-[4-(4-methyl-2-methylamino-thiazol-5-yl)-pyrimidin-2-yl]-amine] has an IC50 (CDK2/Cyclin E; [1]) of 27000 nM and an IC50 (CDK9/cyclin T1; [2]) of 10 nM.

In the case of `CNc1nc(C)c(-c2ccnc(Nc3ccc(I)c([N+](=O)[O-])c3)n2)s1` [Compound 132, (4-Iodo-3-nitro-phenyl)-[4-(4-methyl-2-methylamino-thiazol-5-yl)-pyrimidin-2-yl]-amine], the IC50 (CDK9/cyclin T1; [2]) is reported as 110 nM.

Work on `Cc1nc(C)c(-c2ccnc(Nc3cc(F)cc(F)c3)n2)s1` [Compound 10, (3,5-Difluoro-phenyl)-[4-(2,4-dimethyl-thiazol-5-yl)-pyrimidin-2-yl]-amine] yielded an IC50 (CDK2/Cyclin E; [1]) of 5900 nM and an IC50 (CDK1/Cyclin B) of 5500 nM.

`CNc1nc(C)c(-c2ccnc(Nc3ccc(C(F)(F)F)cc3)n2)s1` [Compound 74, [4-(4-Methyl-2-methylamino-thiazol-5-yl)-pyrimidin-2-yl]-(4-trifluoromethyl-phenyl)-amine] was tested, and the IC50 (CDK2/Cyclin E; [1]) was 1900 nM.

`Cc1c(-c2ccnc(Nc3ccc(F)cc3)n2)sc(=O)n1C` [Compound 155, 5-[2-(4-Fluoro-phenylamino)-pyrimidin-4-yl]-3,4-dimethyl-3H-thiazol-2-one] gave an IC50 (CDK9/cyclin T1; [3]) of 2.7 nM.
